{"source": "patent US6601275B2", "about": "“Method and composition for embalming” (United Biotechnologies, L.L.C., priority 2000, dated 2003)", "origin": "cited, not measured here", "data": [{"smiles": "C=O", "note": "[formaldehyde]", "values": [{"measurement": "airborne concentration causing irritation of the eyes nose and throat", "setting": "airborne", "value": "above 0.1 ppm"}, {"measurement": "airborne concentration immediately dangerous to life and health", "setting": "airborne", "value": 100, "unit": "ppm"}, {"measurement": "carcinogenicity", "setting": "human", "value": "potential human carcinogen"}]}]}
